Values belong to the compound of their own block, whether it stands above or below them.
Legend:
p300 [1] = target: T1, p300 (Homo sapiens, UniProt Q09472); assay: In vitro HAT assay with recombinant p300, histones and 14C acetyl-CoA; assay type: biochemical; settings: for IC50: in vitro HAT assay, recombinant p300 and histones, read-out: IC50, p300 acetyltransferase activity; for Inhibition of p300 acetyltransferase in vitro: data not shown
T1 construct: in vitro acetylation assays with purified histones and a recombinant p300 catalytic domain; purchased Enzo Life Sciences
T1 sequence (Q09472 1287-1663 limits assumed): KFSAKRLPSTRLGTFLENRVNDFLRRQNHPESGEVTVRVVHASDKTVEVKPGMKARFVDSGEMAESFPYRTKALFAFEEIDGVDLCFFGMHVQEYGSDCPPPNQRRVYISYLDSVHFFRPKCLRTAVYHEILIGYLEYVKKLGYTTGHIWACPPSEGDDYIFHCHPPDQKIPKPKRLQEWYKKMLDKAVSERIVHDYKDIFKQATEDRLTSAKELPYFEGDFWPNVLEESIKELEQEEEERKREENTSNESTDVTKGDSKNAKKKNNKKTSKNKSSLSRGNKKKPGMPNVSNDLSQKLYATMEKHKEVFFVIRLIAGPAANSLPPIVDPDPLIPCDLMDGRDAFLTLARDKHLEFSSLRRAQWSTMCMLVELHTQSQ
Method: To determine whether salicylate inhibits p300 and other acetyltransferases, we used in vitro acetylation assays with purified histones and a recombinant p300 catalytic domain.
(§1) Figure 1. Salicylate inhibits CBP/p300 in vitro. (A) Recombinant p300, CBP, GCN5, or PCAF and histones were incubated with ^14C-labeled acetyl-CoA with or without sodium salicylate, separated by SDS-PAGE, analyzed by autoradiography, and quantified with Image J software. Acetylation levels are relative to those in untreated controls. (B) Thermal stability assay for sodium salicylate binding to the p300 HAT domain. Tm, melting temperature. (C) and (D) Lineweaver-Burk plots showing kinetic analysis of p300 acetyltransferase inhibition by sodium salicylate. Histone acetylation was measured with several concentrations of acetyl-CoA (C) or histone (D) in the presence or absence of sodium salicylate. DOI: http://dx.doi.org/10.7554/eLife.11156.003 Figure 1—figure supplement 1. […] (A) Dose-response data for inhibition of p300 by salicylate and salicyl-CoA. Acetylation of an H4(3–14) peptide was monitored using direct microfluidic mobility shift analysis as previously described ([Montgomery et al., 2014]; [Fanslau et al., 2010]). Error is given as the 95% confidence interval. […] Error is given as the 95% confidence interval. DOI: http://dx.doi.org/10.7554/eLife.11156.004 [drawing 1] TEXT PRINTED IN THE PICTURE: (A) Salicylate: p300 IC50 (mM): 6.12; Confidence Interval [CI95] (mM): 5.2–7.2 | (A) Salicyl-CoA: p300 IC50 (mM): […]; Confidence Interval [CI95] […] (mM): 0.78–1.4 | (B) Diflunisal-CoA: p300 IC50 (mM): 0.02; Confidence Interval [CI95] (mM): 0.02–0.03
Recombinant HAT ([…]), either p300, CBP, PCAF, or GCN5 (Enzo Life Sciences), and 10 µg of histones (Sigma) were incubated with sodium salicylate (Sigma) in reaction buffer (50 mM HEPES, pH 8.0, 10% glycerol, 1 mM) at 30°C for 30 min and then with 0.1 mCi of ^14C acetyl-CoA at 30°C for 60 min. Reactions were stopped by adding 6x sample buffer and analyzed by SDS-PAGE. The gels were dried, and signals were obtained by autoradiography and quantified with Image J software. To quantify acetylated histone levels, we generated a standard curve from signals of lanes loaded with […] of ^14C labeled histones.

p300 [2] = target: T1, p300; assay: p300 inhibition by direct microfluidic mobility shift analysis, H4(3–14) peptide; assay type: biochemical; settings: for IC50: microfluidic mobility shift, H4(3–14) peptide, 5 μM acetyl-CoA; for Fold increased potency of CoA metabolite in comparison with parent drug: ratio of p300 IC50 values
Method: as §1
Salicyl-CoA and diflunisal-CoA were synthesized from their parent carboxylic acids and HPLC purified according to previously reported methods ([Padmakumar et al., 1997]). The purity of each acyl-CoA was confirmed by analytical HPLC prior immediately prior to utilization ([Montgomery et al., 2014]; [Fanslau et al., 2010]). P300 inhibition assays were performed using direct microfluidic mobility shift analysis as previously described. Briefly, p300 reaction mixture (50 mM HEPES, pH 7.5, 50 mM NaCl, 2 mM EDTA, 2 mM DTT, 0.05% Triton-X-100, 50 nM p300, 2 μM FITC-histone H4 peptide) was plated in 384-well plates and allowed to equilibrate at room temperature for 10 min. Reactions were initiated by addition of acetyl-CoA (final concentration = 5 μM), bringing the final assay volume to 30 μL. Assays were quenched after 10 min (<15% product accumulation) by addition of 5 μL of 0.5 M neutral hydroxylamine and transferred to a Perkin-Elmer Lab-Chip EZ-Reader instrument for analysis. Separation conditions were: downstream voltage of −500 V, upstream voltage of −2500 V, and a pressure of −1.5 psi. Percent conversion was calculated by ratiometric measurement of substrate/product peak heights. Percent activity represents the percent conversion of KAT reactions treated with inhibitors relative to untreated control KAT reactions, and corrected for nonenzymatic acetylation. Dose-response analysis of p300 inhibition was performed in triplicate and analyzed by nonlinear least-squares regression fit to Y = 100/(1 + 10∧(Log IC50 – X)*H), where H = Hill slope (variable). IC50 values represent the concentration that inhibits 50% of KAT activity. Calculations were performed using Prism 6 (GraphPad) software.

IC50 (p300 [1]): 664 µM
SMILES: COc1c(C)c2c(c(O)c1C/C=C(\C)CCC(=O)O)C(=O)OC2 [mycophenolic acid]

Inhibition of p300 acetyltransferase in vitro (p300 [1]): did not detect any inhibitory activity
SMILES: COc1ccc2c(c1)c(CC(=O)O)c(C)n2C(=O)c1ccc(Cl)cc1 [indomethacin]

IC50 (p300 [2]): 20 µM | Fold increased potency of CoA metabolite in comparison with parent drug (p300 [2]): 52 fold
SMILES: CC(C)(COP(=O)(O)OP(=O)(O)OCC1OC(n2cnc3c(N)ncnc32)C(O)C1OP(=O)(O)O)C(O)C(=O)NCCC(=O)NCCSC(=O)c1cc(-c2ccc(F)cc2F)ccc1O (centres unmarked) [diflunisal-CoA]

IC50 (p300 [1]): 374 µM
SMILES: CCOc1cc(CC(=O)N[C@@H](CC(C)C)c2ccccc2N2CCCCC2)ccc1C(=O)O [repaglinide]

IC50 (p300 [2]): 220 µM | Fold increased potency of CoA metabolite in comparison with parent drug (p300 [2]): 28 fold
SMILES: CC(C)(COP(=O)(O)OP(=O)(O)OC[C@H]1O[C@@H](n2cnc3c(N)ncnc32)[C@H](O)[C@@H]1OP(=O)(O)O)[C@@H](O)C(=O)NCCC(=O)NCCSC(=O)c1ccccc1O [salicyl-CoA]

Second part, the compound before the results:

SMILES: Nc1ccc(C(=O)O)c(O)c1 [4-Amino- Salicylic Acid, 4-aminosalicylic acid]
IC50 (p300 [1]): 12400 µM

SMILES: Nc1ccc(O)c(C(=O)O)c1 [5-Amino- Salicylic Acid, 5-aminosalicylic acid]
IC50 (p300 [1]): 7600 µM

SMILES: CC(=O)Nc1ccc(O)cc1 [acetaminophen]
Inhibition of p300 acetyltransferase in vitro (p300 [1]): did not detect any inhibitory activity

SMILES: CC(=O)Oc1ccccc1C(=O)O [Acetyl- Salicylic Acid, acetylsalicylic acid]
IC50 (p300 [1]): 14200 µM

— publication PMC4931907 (eLife, 2016)
